Results on three compounds are retold here after patent US10870647B2, “Imidazopyridine derivative, method for preparing same, and pharmaceutical composition containing same as active ingredient for preventing or treating cancer” (DAEGU-GYEONGBUK MEDICAL INNOVATION FOUNDATION, priority 2016, dated 2020).

Holding throughout (experiment): Kinase selectivity, scanMAX Kinase assay panel (DiscoverX), % control at 1 uM
Holding throughout (format): binding

Assay [1] deals with T1, scanMAX Kinase assay panel (Homo sapiens, UniProt Q9Y243).
T1 construct: purchased DiscoverX
Particulars: AKT3; 1 uM; read-out: Percent Control (%). In short, it runs like this:
(§1)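 Read-out is percent of control, derived from the signal with compound relative to positive and negative controls: (compound − positive)/(negative − positive) × 100. Each enzyme received test drug at 1 uM in DMSO, and values under 35% count as active.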

Assay [2] addresses T2, scanMAX Kinase assay panel (Homo sapiens, UniProt Q14012).
T2 construct: purchased DiscoverX
Particulars: CAMK1; 1 uM; read-out: Percent Control (%). In short, it runs like this:
as §1

Assay [3] concerns the target T3, scanMAX Kinase assay panel (Homo sapiens, UniProt P00533, L858R).
T3 construct: purchased DiscoverX
Particulars: EGFR (L858R); 1 uM; read-out: Percent Control (%). In short, it runs like this: as §1

Assay [4] addresses T4, scanMAX Kinase assay panel (Homo sapiens, UniProt Q86Z02).
T4 construct: purchased DiscoverX
Particulars: HIPK1; 1 uM; read-out: Percent Control (%). The gist of the method: as §1

Assay [5] deals with T5, scanMAX Kinase assay panel (Homo sapiens, UniProt P42345).
T5 construct: purchased DiscoverX
The note with it: MTOR; 1 uM; read-out: Percent Control (%). In short, it runs like this:
as §1

Assay [6] addresses T6, scanMAX Kinase assay panel (Homo sapiens, UniProt P10721, D816H).
T6 construct: purchased DiscoverX
Particulars: KIT (D816H); 1 uM; read-out: Percent Control (%). The gist of the method:
as §1

In assay [7] the target is T7, scanMAX Kinase assay panel (Homo sapiens, UniProt P00533, G719C).
T7 construct: purchased DiscoverX
Particulars: EGFR (G719C); 1 uM; read-out: Percent Control (%). In short, it runs like this:
as §1

Assay [8] has as its target T8, scanMAX Kinase assay panel (Homo sapiens, UniProt P00533, T790M).
T8 construct: purchased DiscoverX
Particulars: EGFR (T790M); 1 uM; read-out: Percent Control (%). The gist of the method: as §1

The target of assay [9] is T9, scanMAX Kinase assay panel (Homo sapiens, UniProt P27448).
T9 construct: purchased DiscoverX
The note with it: MARK3; 1 uM; read-out: Percent Control (%). The gist of the method: as §1

Assay [10] addresses T10, scanMAX Kinase assay panel (Homo sapiens, UniProt P37023).
T10 construct: purchased DiscoverX
The note with it: ACVRL1; 1 uM; read-out: Percent Control (%). The gist of the method: as §1

In assay [11] the target is T11, scanMAX Kinase assay panel (Homo sapiens, UniProt P19525).
T11 construct: purchased DiscoverX
The note with it: PRKR; 1 uM; read-out: Percent Control (%). The gist of the method:
as §1

Assay [12] has as its target T12, scanMAX Kinase assay panel (Homo sapiens, UniProt O14920).
T12 construct: purchased DiscoverX
T12 sequence (O14920 1-756): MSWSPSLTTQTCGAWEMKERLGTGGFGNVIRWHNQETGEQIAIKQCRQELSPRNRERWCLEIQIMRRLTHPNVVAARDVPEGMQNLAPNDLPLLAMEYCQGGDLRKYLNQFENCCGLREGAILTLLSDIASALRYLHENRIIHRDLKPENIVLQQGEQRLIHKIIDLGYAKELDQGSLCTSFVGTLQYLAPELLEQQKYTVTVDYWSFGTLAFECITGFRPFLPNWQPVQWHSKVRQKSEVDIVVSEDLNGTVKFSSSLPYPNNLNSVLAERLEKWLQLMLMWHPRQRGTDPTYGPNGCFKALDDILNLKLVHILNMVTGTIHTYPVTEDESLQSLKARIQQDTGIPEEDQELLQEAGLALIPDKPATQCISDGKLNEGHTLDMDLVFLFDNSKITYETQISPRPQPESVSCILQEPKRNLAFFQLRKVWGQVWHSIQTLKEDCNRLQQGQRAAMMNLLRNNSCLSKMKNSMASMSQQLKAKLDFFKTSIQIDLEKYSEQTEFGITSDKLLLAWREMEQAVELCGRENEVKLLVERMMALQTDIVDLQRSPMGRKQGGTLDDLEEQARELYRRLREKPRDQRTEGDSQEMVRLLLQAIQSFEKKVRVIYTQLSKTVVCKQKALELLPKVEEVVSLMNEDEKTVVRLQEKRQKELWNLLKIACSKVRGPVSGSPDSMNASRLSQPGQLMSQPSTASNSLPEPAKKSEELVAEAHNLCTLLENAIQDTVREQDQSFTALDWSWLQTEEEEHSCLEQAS
Particulars: IKK-beta; 1 uM; read-out: Percent Control (%). In short, it runs like this: as §1

For assay [13], the target named is T13, scanMAX Kinase assay panel (Homo sapiens, UniProt Q9HBY8).
T13 construct: purchased DiscoverX
T13 sequence (Q9HBY8 1-367): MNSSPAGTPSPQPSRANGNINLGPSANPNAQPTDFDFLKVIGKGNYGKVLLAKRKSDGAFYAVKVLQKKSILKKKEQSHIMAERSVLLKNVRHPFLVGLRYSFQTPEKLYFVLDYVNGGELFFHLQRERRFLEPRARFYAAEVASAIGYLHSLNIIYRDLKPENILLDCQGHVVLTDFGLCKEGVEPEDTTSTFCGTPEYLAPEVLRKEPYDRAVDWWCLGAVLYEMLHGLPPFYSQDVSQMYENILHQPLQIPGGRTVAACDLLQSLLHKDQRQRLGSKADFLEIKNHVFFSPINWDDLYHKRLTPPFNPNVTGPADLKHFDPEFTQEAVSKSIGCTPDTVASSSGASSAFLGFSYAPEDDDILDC
Particulars: SGK2; 1 uM; read-out: Percent Control (%). In short, it runs like this:
as §1

Assay [14] concerns the target T14, scanMAX Kinase assay panel (Homo sapiens, UniProt Q86V86).
T14 construct: purchased DiscoverX
The note with it: PIM3; 1 uM; read-out: Percent Control (%). In short, it runs like this: as §1

T7 sequence (P00533 25-1210 G719C): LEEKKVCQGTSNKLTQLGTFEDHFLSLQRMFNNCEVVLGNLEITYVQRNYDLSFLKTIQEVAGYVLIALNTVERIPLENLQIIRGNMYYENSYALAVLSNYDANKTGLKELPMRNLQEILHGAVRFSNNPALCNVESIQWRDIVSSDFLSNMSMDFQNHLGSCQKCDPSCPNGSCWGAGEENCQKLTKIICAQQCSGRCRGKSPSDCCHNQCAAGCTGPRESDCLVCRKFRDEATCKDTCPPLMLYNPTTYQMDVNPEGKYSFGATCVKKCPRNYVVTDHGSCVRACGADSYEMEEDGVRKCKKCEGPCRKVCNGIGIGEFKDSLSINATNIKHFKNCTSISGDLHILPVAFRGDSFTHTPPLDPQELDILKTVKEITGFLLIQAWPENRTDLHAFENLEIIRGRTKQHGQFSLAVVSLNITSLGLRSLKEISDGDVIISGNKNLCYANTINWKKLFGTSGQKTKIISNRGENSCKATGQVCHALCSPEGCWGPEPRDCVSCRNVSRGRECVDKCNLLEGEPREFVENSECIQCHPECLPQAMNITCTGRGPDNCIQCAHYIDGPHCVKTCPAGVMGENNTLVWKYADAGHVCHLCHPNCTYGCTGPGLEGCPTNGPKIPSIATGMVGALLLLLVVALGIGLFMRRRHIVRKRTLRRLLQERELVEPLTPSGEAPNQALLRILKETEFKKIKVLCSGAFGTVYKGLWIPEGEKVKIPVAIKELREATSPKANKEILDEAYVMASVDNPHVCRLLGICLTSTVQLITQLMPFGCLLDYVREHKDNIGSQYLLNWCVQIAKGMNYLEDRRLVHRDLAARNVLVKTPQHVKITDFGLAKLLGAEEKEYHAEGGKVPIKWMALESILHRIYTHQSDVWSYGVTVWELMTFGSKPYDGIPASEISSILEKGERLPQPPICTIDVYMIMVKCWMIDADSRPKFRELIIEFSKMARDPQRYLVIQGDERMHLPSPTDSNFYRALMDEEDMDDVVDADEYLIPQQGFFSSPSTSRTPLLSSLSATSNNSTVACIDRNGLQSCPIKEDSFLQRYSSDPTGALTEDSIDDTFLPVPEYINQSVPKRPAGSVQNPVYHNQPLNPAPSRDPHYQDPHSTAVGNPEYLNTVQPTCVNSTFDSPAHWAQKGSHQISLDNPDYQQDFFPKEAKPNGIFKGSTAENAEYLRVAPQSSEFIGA
T3 sequence (P00533 25-1210 L858R): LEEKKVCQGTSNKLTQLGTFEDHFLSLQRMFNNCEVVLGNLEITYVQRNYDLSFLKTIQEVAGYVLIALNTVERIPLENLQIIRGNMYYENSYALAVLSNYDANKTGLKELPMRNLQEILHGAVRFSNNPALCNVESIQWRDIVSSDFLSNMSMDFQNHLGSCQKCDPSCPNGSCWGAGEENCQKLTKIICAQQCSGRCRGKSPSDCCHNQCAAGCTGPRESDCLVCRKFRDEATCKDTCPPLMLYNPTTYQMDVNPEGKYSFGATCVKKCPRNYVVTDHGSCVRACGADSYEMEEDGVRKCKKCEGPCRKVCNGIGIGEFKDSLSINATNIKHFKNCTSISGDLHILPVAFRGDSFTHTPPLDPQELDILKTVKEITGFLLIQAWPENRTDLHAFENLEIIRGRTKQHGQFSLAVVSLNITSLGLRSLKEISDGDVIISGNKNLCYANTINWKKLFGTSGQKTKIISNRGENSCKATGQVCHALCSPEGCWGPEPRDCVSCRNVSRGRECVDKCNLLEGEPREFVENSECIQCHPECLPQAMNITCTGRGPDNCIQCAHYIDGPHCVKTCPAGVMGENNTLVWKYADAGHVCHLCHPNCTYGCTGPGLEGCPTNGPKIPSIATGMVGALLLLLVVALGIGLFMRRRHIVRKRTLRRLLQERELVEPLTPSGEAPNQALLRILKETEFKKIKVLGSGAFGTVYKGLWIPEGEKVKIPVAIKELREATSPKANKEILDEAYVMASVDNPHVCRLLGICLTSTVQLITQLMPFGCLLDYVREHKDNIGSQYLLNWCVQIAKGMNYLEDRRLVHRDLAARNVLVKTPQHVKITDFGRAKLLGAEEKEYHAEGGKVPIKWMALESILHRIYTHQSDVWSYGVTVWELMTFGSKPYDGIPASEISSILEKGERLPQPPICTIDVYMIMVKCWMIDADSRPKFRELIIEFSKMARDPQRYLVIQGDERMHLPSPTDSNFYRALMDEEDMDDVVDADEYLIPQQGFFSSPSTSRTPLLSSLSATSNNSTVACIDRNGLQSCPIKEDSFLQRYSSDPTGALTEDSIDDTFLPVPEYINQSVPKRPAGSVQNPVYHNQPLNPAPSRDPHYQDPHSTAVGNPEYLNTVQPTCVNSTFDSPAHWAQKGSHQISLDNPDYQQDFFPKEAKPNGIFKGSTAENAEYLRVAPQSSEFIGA
T8 sequence (P00533 25-1210 T790M): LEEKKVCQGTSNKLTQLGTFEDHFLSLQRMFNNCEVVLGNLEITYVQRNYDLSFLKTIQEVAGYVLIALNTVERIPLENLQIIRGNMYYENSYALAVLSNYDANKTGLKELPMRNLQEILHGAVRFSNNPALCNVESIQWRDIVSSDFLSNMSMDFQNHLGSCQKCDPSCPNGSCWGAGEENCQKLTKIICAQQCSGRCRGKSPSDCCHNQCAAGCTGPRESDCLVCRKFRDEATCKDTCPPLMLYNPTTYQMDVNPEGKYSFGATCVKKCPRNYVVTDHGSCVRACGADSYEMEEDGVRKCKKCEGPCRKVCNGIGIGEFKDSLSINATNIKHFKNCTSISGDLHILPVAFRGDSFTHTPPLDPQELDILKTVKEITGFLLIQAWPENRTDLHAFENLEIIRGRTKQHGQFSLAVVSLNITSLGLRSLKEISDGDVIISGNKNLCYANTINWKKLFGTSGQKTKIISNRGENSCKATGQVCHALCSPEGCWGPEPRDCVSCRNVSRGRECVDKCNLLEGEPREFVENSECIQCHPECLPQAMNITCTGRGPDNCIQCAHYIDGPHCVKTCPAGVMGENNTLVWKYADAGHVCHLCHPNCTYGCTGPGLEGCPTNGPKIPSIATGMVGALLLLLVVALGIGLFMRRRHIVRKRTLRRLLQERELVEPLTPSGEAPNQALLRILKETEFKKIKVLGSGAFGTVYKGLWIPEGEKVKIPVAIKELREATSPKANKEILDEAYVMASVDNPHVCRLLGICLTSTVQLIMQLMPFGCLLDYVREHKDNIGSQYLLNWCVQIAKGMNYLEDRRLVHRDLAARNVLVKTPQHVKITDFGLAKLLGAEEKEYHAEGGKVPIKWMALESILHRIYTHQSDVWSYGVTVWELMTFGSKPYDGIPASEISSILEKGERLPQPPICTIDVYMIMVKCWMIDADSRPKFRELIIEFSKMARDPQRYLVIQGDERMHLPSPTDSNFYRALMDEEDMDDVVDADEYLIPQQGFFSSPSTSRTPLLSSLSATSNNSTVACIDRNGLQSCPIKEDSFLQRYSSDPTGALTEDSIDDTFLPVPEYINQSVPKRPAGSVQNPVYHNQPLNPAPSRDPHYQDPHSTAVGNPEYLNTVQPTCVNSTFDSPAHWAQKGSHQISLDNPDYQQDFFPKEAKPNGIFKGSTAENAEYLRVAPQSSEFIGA
T11 sequence (P19525 whole entry): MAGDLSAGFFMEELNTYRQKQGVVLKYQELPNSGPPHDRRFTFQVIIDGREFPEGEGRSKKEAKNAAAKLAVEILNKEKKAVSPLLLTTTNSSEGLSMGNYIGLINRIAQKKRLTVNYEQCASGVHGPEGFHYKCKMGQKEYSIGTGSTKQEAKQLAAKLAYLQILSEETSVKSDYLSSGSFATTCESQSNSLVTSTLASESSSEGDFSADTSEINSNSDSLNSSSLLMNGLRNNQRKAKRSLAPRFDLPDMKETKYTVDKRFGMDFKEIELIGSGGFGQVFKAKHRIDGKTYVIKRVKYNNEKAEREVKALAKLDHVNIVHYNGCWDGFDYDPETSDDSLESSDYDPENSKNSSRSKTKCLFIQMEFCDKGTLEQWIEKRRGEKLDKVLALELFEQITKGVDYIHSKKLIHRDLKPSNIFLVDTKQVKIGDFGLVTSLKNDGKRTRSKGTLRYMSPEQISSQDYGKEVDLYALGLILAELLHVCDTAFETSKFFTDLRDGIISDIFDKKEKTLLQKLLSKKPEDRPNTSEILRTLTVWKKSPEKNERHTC
T2 sequence (Q14012 whole entry): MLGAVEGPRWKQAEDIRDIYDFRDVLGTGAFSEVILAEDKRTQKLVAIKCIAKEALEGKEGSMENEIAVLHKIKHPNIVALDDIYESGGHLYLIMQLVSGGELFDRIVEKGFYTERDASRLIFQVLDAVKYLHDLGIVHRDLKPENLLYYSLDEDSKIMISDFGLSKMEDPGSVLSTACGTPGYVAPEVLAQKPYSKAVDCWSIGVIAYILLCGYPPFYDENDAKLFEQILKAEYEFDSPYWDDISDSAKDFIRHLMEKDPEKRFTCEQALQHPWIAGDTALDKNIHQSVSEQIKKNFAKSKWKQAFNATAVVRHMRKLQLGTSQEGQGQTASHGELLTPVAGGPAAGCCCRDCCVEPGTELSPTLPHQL
T10 sequence (P37023 22-503): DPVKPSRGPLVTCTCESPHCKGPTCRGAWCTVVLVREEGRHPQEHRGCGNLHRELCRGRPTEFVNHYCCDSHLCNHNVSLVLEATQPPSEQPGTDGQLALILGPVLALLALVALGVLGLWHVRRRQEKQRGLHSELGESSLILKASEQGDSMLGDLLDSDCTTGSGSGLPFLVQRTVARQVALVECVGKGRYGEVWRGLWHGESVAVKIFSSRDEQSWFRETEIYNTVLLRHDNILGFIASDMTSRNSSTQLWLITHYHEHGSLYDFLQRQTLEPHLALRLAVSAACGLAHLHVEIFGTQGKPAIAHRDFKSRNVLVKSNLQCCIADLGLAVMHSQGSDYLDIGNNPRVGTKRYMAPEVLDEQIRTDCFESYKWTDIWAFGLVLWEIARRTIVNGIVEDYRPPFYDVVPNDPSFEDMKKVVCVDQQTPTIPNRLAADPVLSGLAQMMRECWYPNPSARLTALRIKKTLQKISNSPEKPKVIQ

On to `Cc1ccc(C(=O)Nc2ccc(CN3CCN(C)CC3)c(C(F)(F)F)c2)cc1C#Cc1cnc2c(Nc3cnn(C)c3)cccn12` [Example 1, 4-methyl-3-((8-((1-methyl-1H-pyrazol-4-yl)amino)imidazo[1,2-a]pyridin-3-yl)ethynyl)-N-(4-((4-methylpiperazin-1-yl)methyl)-3-(trifluoromethyl)phenyl)benzamide], for which the remaining binding at 1 µM in [1] stood at 99%; in [2] it was 35%; in assay [3], 0%; in [4], 51%; in assay [5], 77%; in [6], 7%. The remaining binding at 1 µM in [7] was determined as 1%; in assay [8], 10%; in assay [9], 53%; in assay [10], 99%; in assay [11], 80%; in [12] it was 3%. In addition, the remaining binding at 1 µM turned out to be 84% in [13] and 88% in assay [14].

On to `Cc1ccc(NC(=O)C2(C(=O)Nc3ccc(F)cc3)CC2)cc1C#Cc1cnc2c(Nc3cnn(C(C)C)c3)cccn12` [Example 78], for which the remaining binding at 1 µM in assay [1] stood at 95%; in assay [2] it was 100%; in assay [3] it was 84%; in assay [4] it was 91%; in [5], 91%; in assay [6], 63%. Also, the remaining binding at 1 µM in assay [7] was 97%; in assay [8] it was 100%; in [9], 100%; in [10], 100%; in [11] it was 100%; in assay [12] it was 100%. In addition, the remaining binding at 1 µM in [13] and in assay [14] was 100% in each case.

On to `Cc1cn(-c2cc(NC(=O)c3ccc(C)c(C#Cc4cnc5c(Nc6cnn(C)c6)cccn45)c3)cc(C(F)(F)F)c2)cn1` [Example 12, 4-methyl-N-(3-(4-methyl-1H-imidazol-1-yl)-5-(trifluoromethyl)phenyl)-3-((8-((1-methyl-1H-pyrazol-4-yl)amino)imidazo[1,2-a]pyridin-3-yl)ethynyl)benzamide], for which the remaining binding at 1 µM was found to be 99% in [1]; 73% in [2]; 47% in assay [3]; 71% in assay [4]; 66% in assay [5]; 70% in assay [6]. Besides, the remaining binding at 1 µM was determined as 21% in [7]; 75% in assay [8]; 94% in assay [9]; 99% in assay [10]; 89% in assay [11]; 39% in [12]. The remaining binding at 1 µM came out at 100% in [13] and 90% in [14].
